Experiments:
[1] = system: c-Fos immunoreactivity in the dorsal medial habenula; experiment: cFos Staining; assay type: in vivo, C57/B16 mice; conditions: oral
Protocol: Methods: After dosing C57/B16 mice for various time courses their brains were prepared for immunohistochemistry. […] Brains are extracted and placed in 4% paraformaldehyde for 3 hours, changed into 20% sucrose/PBS solution to avoid freezing artifacts, and frozen with dry ice. Frozen brain sections are obtained with sliding microtome at 20 um and washed in PBS (2 times for 10 minutes each). Endogenous peroxidase enzyme is blocked with 0.3% H2O2 solution in water for 10 minutes. Sections are rinsed in PBS (3 times for 10 minutes each) and incubated in primary antibody against cFos (Santa Cruz SC-42) at a dilution of 1:10,000 at 4° C. overnight in PBS+0.3% triton and 1% bovine serum albumin. Sections are subsequently rinsed in PBS (3 times for 10 minutes each) and incubated in secondary antibody: goat against rabbit-biotinylated antibody, at a dilution of 1:200 for 1 hour at room temperature in PBS+0.3% triton and 1% bovine serum albumin. Sections are rinsed in PBS (3 times for 10 minutes each) and incubated in ABC mix in PBS; ABC Elite Kit from Vector (PK-1000) for 1 hour at room temperature. Next, the sections are rinsed in PBS (3 times for 10 minutes each) and then in 0.1 M sodium acetate (3 times for 10 minutes each). Reaction is visualized with standard diaminobenzydine procedures: 50 mL of 0.1M sodium acetate containing 20 mg ammonium chloride, 20 mg, diaminobenzydine, 80 mg glucose and 10 mL of glucose oxidase. React for 10 minutes then the reaction is stopped with PBS rinses (3 times for 10 minutes each). cFos cells are then counted.

human GPR139 receptor [2] = target: T1, human GPR139 receptor (Homo sapiens (Human), UniProt Q6DWJ6); experiment: Activation of Calcium Signaling of GPR139 In Vitro Assay; assay type: cell-based; conditions: stably transfected CHO-TRex cells, Calcium 5 dye, FLIPR Tetra;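 further: receptor expression induced with doxycycline, calcium fluorescence read continuously for one minute after compound addition, EC50 taken from a four-parameter logistic fit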
T1 sequence (Q6DWJ6 whole entry): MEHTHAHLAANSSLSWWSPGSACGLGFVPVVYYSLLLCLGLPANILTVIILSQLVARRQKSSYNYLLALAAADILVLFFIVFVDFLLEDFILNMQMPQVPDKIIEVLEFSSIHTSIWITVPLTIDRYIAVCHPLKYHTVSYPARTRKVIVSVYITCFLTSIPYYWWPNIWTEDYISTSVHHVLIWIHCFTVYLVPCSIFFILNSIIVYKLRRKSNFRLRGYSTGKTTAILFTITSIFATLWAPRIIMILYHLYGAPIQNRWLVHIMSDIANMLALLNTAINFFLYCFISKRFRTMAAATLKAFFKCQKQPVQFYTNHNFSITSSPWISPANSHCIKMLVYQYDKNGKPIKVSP

human GPR139 receptor [3] = target: T1, human GPR139 receptor; experiment: GPR139 Competition Binding; conditions: stably transfected CHO-TRex membranes, 1 nM 3H radioligand; read-out: GPR139 Inhibition (Ki (nM));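 further: receptor expression induced with doxycycline before membrane preparation, bound radioactivity counted by scintillation, Ki fitted with a four-parameter logistic model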

Row | Compound | EC50 (human GPR139 receptor [2]) [nM] | Ki (human GPR139 receptor [3]) [nM] | also measured
1 | C[C@H](NC(=O)Cn1nnc2ccccc2c1=O)c1ccc(OC(F)(F)F)cc1 [Example 2, (S)-2-(4-oxobenzo[d][1,2,3]triazin-3(4H)-yl)-N-(1-(4-(trifluoromethoxy)phenyl)ethyl)acetamide] |  |  | cFos cell count, Mean ([1]; desensitization experiment, 0.1 mg/kg 1d): 1486; cFos cell count, Mean ([1]; desensitization experiment, 0.1 mg/kg 5d): 1928; cFos cell count, Mean ([1]; desensitization experiment, 0.1 mg/kg 10d): 1684; cFos cell count, Mean ([1]; dose response curve experiment, 0.01 mg/kg): 1376; cFos cell count, Mean ([1]; dose response curve experiment, 0.03 mg/kg): 986.3; cFos cell count, Mean ([1]; dose response curve experiment, 0.1 mg/kg): 1381; cFos cell count, Mean ([1]; dose response curve experiment, 0.3 mg/kg): 1408; cFos cell count, Mean ([1]; dose response curve experiment, 1 mg/kg): 1368; cFos cell count, Mean ([1]; time course experiment, 0.1 mg/kg 1 hr): 787.7; cFos cell count, Mean ([1]; time course experiment, 0.3 mg/kg 1 hr): 1343; cFos cell count, Mean ([1]; time course experiment, 0.3 mg/kg 2 hr): 1400; cFos cell count, Mean ([1]; time course experiment, 0.3 mg/kg 4 hr): 2170; cFos cell count, Mean ([1]; time course experiment, 3 mg/kg 1 hr): 2365
2 | COc1cccc2nnn(CC(=O)N[C@@H](C)c3ccc(C)cc3)c(=O)c12 [Example 3, (S)-2-(5-methoxy-4-oxobenzo[d][1,2,3]triazin-3(4H)-yl)-N-(1-p-tolylethyl)acetamide] |  |  | cFos cell count, Mean ([1]; dose-response and time course experiment, 0.03 mg/kg 1 hr): 1628; cFos cell count, Mean ([1]; dose-response and time course experiment, 0.1 mg/kg 1 hr): 2243; cFos cell count, Mean ([1]; dose-response and time course experiment, 0.3 mg/kg 1 hr): 2458; cFos cell count, Mean ([1]; dose-response and time course experiment, 0.3 mg/kg 2 hr): 2777; cFos cell count, Mean ([1]; dose-response and time course experiment, 0.3 mg/kg 4 hr): 865; cFos cell count, Mean ([1]; dose-response and time course experiment, 3 mg/kg 1 hr): 2023
3 | COc1ccc([C@H](C)NC(=O)Cn2nnc3c(F)cccc3c2=O)cc1 [Example 17, (S)-2-(8-fluoro-4-oxobenzo[d][1,2,3]triazin-3(4H)-yl)-N-(1-(4-methoxyphenyl)ethyl)acetamide] | 27 | 3600 | 
4 | CC[C@H](NC(=O)Cn1nnc2ccccc2c1=O)c1ccc(OC(F)(F)F)cc1 [Example 86, (S)-2-(4-oxobenzo[d][1,2,3]triazin-3(4H)-yl)-N-(1-(4-(trifluoromethoxy)phenyl)propyl)acetamide] | 50 | 183 | 
5 | COc1ccc([C@H](C)NC(=O)Cn2nnc3c(C)cc(C)cc3c2=O)cc1 [Example 42, (S)-2-(6,8-dimethyl-4-oxobenzo[d][1,2,3]triazin-3(4H)-yl)-N-(1-(4-methoxyphenyl)ethyl)acetamide] | 37 | 179 | 
6 | C[C@H](NC(=O)Cn1nnc2ccc(F)cc2c1=O)c1ccc(OC(F)(F)F)cc1 [Example 55, (S)-2-(6-fluoro-4-oxobenzo[d][1,2,3]triazin-3(4H)-yl)-N-(1-(4-(trifluoromethoxy)phenyl)ethyl)acetamide] | 38 | 42 | 

The remaining compounds from weak to strong by EC50 (human GPR139 receptor [2]), led by results:

Row | EC50 (human GPR139 receptor [2]) [nM] | Ki (human GPR139 receptor [3]) [nM] | Compound | also measured
7 | 26 | 619 | COc1ccc([C@H](C)NC(=O)Cn2nnc3cccc(OC)c3c2=O)cc1 [Example 38, (S)-2-(5-methoxy-4-oxobenzo[d][1,2,3]triazin-3 (4H)-yl)-N-(1-(4-methoxyphenyl)ethyl)acetamide] | 
8 | 25 | 240 | COc1cccc2c(=O)n(CC(=O)N[C@@H](C)c3ccc(OC(F)(F)F)cc3)nnc12 [Example 62, (S)-2-(8-methoxy-4-oxobenzo[d][1,2,3]triazin-3(4H)-yl)-N-(1-(4-(trifluoromethoxy)phenyl)ethyl)acetamide] | 
9 | 17 | 173 | Cc1ccc([C@H](C)NC(=O)Cn2nnc3cc(Cl)ccc3c2=O)cc1 [Example 21, (S)-2-(7-chloro-4-oxobenzo[d][1,2,3]triazin-3(4H)-yl)-N-(1-p-tolylethyl)acetamide] | 
10 | 16 | 459 | Cc1ccc([C@H](C)NC(=O)Cn2nnc3cccc(F)c3c2=O)cc1 [Example 32, (S)-2-(5-fluoro-4-oxobenzo[d][1,2,3]triazin-3(4H)-yl)-N-(1-p-tolylethyl)acetamide] | 
11 | 16 | 26 | Cc1ccc([C@H](C)NC(=O)Cn2nnc3c(Cl)cc(Cl)cc3c2=O)cc1 [Example 26, (S)-2-(6,8-dichloro-4-oxobenzo[d][1,2,3]triazin-3(4H)-yl)-N-(1-p-tolylethyl)acetamide] | 
12 | 13 | 842 | COc1ccc([C@H](C)NC(=O)Cn2nnc3c(Cl)cccc3c2=O)cc1 [Example 23, (S)-2-(8-chloro-4-oxobenzo[d][1,2,3]triazin-3(4H)-yl)-N-(1-(4-methoxyphenyl)ethyl)acetamide] | 
13 | 9 | 708 | Cc1ccc([C@H](C)NC(=O)Cn2nnc3c(F)cccc3c2=O)cc1 [Example 16, (S)-2-(8-fluoro-4-oxobenzo[d][1,2,3]triazin-3(4H)-yl)-N-(1-p-tolylethyl)acetamide] | 
14 | 7 | 110 | Cc1ccc([C@H](C)NC(=O)Cn2nnc3c(Cl)cccc3c2=O)cc1 [Example 22, (S)-2-(8-chloro-4-oxobenzo[d][1,2,3]triazin-3(4H)-yl)-N-(1-p-tolylethyl)acetamide] | 
